Data as given in BindingDB's records for patent US12496348 (Dana-Farber Cancer Institute, 2025).

Target: CREB-binding protein (Homo sapiens, UniProt Q92793)
Test: CBP (Bromodomain) AlphaScreen Assay
Method: Assays were performed with minimal modifications from the manufacturer's protocol (PerkinElmer , USA). All reagents were diluted in 50 mM 4-(2-hydroxyethyl)-1-piperazineethanesulfonic acid (HEPES), 150 mM NaCl, 0.1% w/v bovine serum albumin (BSA), 0.01% w/v Tween 20, pH 7.5 and allowed to equilibrate to room temperature prior to addition to plates. After addition of AlphaScreen acceptor beads to master solutions, all subsequent steps were performed under low light conditions. A 2× solution of components with final concentrations of CBP bromodomain at 40 nM, Ni-coated Acceptor Bead at 10 μg/ml, and 7.2 nM biotinylated-Int-2 was added in 10 μL to 384-well plates (AlphaPlate-384, PerkinElmer , USA). Plates were spun down at 150×g, 100 nL of compound in dimethyl sulfoxide (DMSO) from stock plates were added by pin transfer using a Janus Workstation (PerkinElmer , USA). The streptavidin-coated donor beads ([…] final) were added as with previous the solution in a 2×10 μL volume. Following this addition, plates were sealed with foil to prevent light exposure and evaporation. The plates were spun down again at 150×g. Plates were incubated at room temperature for 1 hour and then read on a 2104 EnVision Multilabel Plate Reader (PerkinElmer , USA) using the manufacturer's protocol.

CREB-binding protein, sequence (Q92793 whole entry): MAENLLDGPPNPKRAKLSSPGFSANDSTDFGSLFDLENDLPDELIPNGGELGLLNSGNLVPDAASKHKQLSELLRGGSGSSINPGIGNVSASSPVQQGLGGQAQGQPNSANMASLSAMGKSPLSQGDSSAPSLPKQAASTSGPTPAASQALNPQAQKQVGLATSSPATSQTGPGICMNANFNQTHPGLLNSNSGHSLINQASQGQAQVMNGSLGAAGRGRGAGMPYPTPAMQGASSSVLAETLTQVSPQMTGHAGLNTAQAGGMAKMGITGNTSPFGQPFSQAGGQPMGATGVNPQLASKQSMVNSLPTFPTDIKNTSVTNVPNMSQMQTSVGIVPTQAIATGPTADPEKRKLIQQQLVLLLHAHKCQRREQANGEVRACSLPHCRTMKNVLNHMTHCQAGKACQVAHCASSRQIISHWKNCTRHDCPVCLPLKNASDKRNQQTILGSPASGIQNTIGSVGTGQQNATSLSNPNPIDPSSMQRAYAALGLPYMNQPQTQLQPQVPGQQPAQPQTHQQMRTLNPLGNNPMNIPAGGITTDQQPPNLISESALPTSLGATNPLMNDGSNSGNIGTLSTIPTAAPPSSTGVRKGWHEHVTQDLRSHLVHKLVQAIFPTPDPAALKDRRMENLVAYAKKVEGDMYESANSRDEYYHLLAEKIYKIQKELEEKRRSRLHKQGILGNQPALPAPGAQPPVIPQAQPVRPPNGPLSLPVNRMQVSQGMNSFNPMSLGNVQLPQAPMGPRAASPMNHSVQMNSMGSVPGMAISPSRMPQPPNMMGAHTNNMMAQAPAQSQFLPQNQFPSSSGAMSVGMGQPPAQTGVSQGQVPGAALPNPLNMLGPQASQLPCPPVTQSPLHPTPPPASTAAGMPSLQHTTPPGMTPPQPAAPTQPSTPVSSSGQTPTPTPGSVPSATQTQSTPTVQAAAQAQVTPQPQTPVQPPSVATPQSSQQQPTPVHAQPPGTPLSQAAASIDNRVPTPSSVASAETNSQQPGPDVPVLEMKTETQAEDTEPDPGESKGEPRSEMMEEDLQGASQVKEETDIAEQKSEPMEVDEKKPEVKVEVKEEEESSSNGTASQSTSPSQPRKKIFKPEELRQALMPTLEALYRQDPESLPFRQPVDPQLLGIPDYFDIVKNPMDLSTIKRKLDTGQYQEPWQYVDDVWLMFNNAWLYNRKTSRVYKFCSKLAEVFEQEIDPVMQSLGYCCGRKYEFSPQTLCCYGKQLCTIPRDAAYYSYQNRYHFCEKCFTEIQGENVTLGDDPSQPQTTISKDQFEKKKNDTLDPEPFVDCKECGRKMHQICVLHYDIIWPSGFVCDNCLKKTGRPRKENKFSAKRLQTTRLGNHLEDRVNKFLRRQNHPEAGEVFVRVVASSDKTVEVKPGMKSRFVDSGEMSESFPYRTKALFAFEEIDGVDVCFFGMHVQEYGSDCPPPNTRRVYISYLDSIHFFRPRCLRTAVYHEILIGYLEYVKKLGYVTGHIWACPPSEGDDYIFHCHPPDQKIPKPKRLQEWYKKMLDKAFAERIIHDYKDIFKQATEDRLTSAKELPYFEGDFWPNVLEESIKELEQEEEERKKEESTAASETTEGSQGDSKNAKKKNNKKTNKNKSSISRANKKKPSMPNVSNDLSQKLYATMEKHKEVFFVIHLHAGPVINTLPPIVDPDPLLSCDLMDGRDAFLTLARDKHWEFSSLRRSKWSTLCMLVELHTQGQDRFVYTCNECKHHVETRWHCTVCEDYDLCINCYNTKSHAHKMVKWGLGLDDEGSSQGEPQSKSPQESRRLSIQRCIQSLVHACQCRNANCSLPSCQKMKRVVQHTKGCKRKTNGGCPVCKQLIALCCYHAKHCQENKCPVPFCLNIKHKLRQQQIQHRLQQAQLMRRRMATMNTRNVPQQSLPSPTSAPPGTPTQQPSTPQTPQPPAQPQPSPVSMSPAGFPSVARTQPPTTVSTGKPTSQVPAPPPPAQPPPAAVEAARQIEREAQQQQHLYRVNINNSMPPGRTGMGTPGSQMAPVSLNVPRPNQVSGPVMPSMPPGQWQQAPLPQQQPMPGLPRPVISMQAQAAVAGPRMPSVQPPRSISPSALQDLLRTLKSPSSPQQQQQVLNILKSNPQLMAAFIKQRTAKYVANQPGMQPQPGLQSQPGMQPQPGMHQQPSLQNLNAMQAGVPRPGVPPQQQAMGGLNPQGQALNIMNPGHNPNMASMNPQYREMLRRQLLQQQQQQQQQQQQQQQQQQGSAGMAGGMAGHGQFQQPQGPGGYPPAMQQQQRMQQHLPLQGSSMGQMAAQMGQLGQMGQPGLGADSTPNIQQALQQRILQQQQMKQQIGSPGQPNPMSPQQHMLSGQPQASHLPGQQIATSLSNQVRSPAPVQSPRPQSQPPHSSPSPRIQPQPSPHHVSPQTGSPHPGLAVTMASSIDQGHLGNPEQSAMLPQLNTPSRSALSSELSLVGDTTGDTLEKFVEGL

IC50: 18.9 µM
Structure (SMILES): Cc1noc(C)c1-c1ccc2nc(-c3ccc(N4CCN(C(=O)CCCCCCCCCCCNc5ccc6c(c5)C(=O)N(C5CCC(=O)NC5=O)C6=O)CC4)cc3)c(NC3CCCCC3)n2c1 (stereo unspecified) [US12496348, Compound 1]
